Results reported in patent publication US11065238B2, “Inhibitors of gangliosides metabolism for the treatment of motor neuron diseases” (ICM (INSTITUT DU CERVEAU ET DE LA MOELLE ÉPINIÈRE), priority 2016, dated 2021).
Entries after “also recorded” stand apart in the source; their conditions may differ.

What was measured:
[1] = test system: GM2 in the telencephalon of zebrafish morphants; test: Zebrafish zspg11 model: GM2 immunostaining in the telencephalon; assay type: in vivo; conditions: for GM2 immunostaining in the telencephalon: injection of 1.2 pmol morpholino vs mismatch morpholino
Description: (§1) Modeling of Spg11 pathology in zebrafish was performed as described previously (Martin, 2012). The knock-down of zspg11 was performed using a morpholino targeting a splice donor site, zspg11spl (5′-[…]-3′—SEQ ID NO: 88). The control morpholino mmzspg11spl (5′-ACgAATgATAGCcTCTCGTAgCgTC-3′—SEQ ID NO: 89) containing five mismatch nucleotides was used to distinguish specific phenotypic effects resulting from the knock-down of zspg11 from non-specific effects due to injection or morpholino toxicity. One nl of 1.2 mM solution of zspg11spl or mmzspg11spl were injected into the yolk of one- to two-cell stage embryos. After injection, embryos were maintained at 28° C. in E3 medium, containing miglustat (Tocris Bioscience) at 100 or 300 uM or DMSO for control groups. At 24 hpf they were manually dechorionated using fine forceps. […] To quantify motor activity, we monitored the touch-evoked escape response at 48 hours post-fertilization in fishes with no obvious developmental abnormalities as previously described (Martin, 2012). Images were acquired at 500 images per sec. Tracking of the touch evoked escape response was performed using the Image J manual tracking plugin. Assessment of GM2 ganglioside levels was performed by whole-mount in vivo immunohistochemistry using 48 hpf embryos fixed in 4% paraformaldehyde in PBS for 2 h at room temperature. Embryos were washed 3 times (5 min each) in PBS-0.1% Triton X-100 (PBST). Embryos were blocked for 1 h in 5% normal goat serum in PBS containing 1% DMSO and 1% Triton X-100 (PBDT), then incubated overnight at 4° C. in blocking solution containing the GM2 primary antibody. […] Larvae were oriented in the same position for image capture to minimize potential biases in quantification. […] Using ImageJ software, the maximum intensity projections of z-stacks were used for quantification of fluorescence in the telencephalon. Mean and variance of the fluorescence intensity were quantified for each morphant in a square of 100 pixels per 100 pixels.

[2] = test system: zebrafish zspg11 morphants; test: Zebrafish zspg11 model: touch-evoked escape response; assay type: in vivo; conditions: for swimming / touch-induced escape: injection of 1.2 pmol morpholino vs mismatch morpholino; for distance travelled following a touch-evoked escape response: treated with miglustat
Description: Modeling of Spg11 pathology in zebrafish was performed as described previously (Martin, 2012). The knock-down of zspg11 was performed using a morpholino targeting a splice donor site, zspg11spl (5′-[…]-3′—SEQ ID NO: 88). The control morpholino mmzspg11spl (5′-ACgAATgATAGCcTCTCGTAgCgTC-3′—SEQ ID NO: 89) containing five mismatch nucleotides was used to distinguish specific phenotypic effects resulting from the knock-down of zspg11 from non-specific effects due to injection or morpholino toxicity. One nl of 1.2 mM solution of zspg11spl or mmzspg11spl were injected into the yolk of one- to two-cell stage embryos. After injection, embryos were maintained at 28° C. in E3 medium, containing miglustat (Tocris Bioscience) at 100 or 300 uM or DMSO for control groups. At 24 hpf they were manually dechorionated using fine forceps. […] To quantify motor activity, we monitored the touch-evoked escape response at 48 hours post-fertilization in fishes with no obvious developmental abnormalities as previously described (Martin, 2012). Images were acquired at 500 images per sec. Tracking of the touch evoked escape response was performed using the Image J manual tracking plugin. Assessment of GM2 ganglioside levels was performed by whole-mount in vivo immunohistochemistry using 48 hpf embryos fixed in 4% paraformaldehyde in PBS for 2 h at room temperature. Embryos were washed 3 times (5 min each) in PBS-0.1% Triton X-100 (PBST). Embryos were blocked for 1 h in 5% normal goat serum in PBS containing 1% DMSO and 1% Triton X-100 (PBDT), then incubated overnight at 4° C. in blocking solution containing the GM2 primary antibody. After 4 washes in PBST at room temperature, embryos were incubated with an anti IgM antibody coupled to Alexa-488 (Thermo Fishser), overnight at room temperature in PBDT. Before observation, embryos were washed 3 times in PSBT and mounted in a drop of Fluoromount™ Aqueous Mounting Medium (Sigma Aldrich). Whole-mount embryos were imaged on a confocal microscope (Leica SP8, 40X, NA 0.8). Larvae were oriented in the same position for image capture to minimize potential biases in quantification. Image stacks were collected with a step-size of 0.35 μm. Using ImageJ software, the maximum intensity projections of z-stacks were used for quantification of fluorescence in the telencephalon. Mean and variance of the fluorescence intensity were quantified for each morphant in a square of 100 pixels per 100 pixels.

[3] = test system: zebrafish zspg11 morphants; test: Zebrafish zspg11 model: phenotype of morphants 48 hours post fertilization; assay type: in vivo; conditions: 48 hpf; for motor phenotype of morphants: injection of 1.2 pmol morpholino vs mismatch or non-injected
Description: as §1

[4] = test system: cultured neurons; conditions: glutamate treatment; cited from earlier work
[5] = test system: GM2 and GM3 gangliosides in primary cultures of cortical neurons; test: Fluorescence intensity of GM2 / GM3 immunostaining in primary cultures of cortical neurons; assay type: cell-based, mouse; conditions: for increase in overall GM2 levels: glutamate treatment
Description: Mouse primary cultures of cortical neurons were treated with Miglustat (Tocris) from the second day in culture. Medium was changed every three days. Immunostaining were performed after six days of culture in vitro, as previously described (Murmu et al., 2011). To downregulate GM3 synthase expression, vectors expressing miRNA were produced using the Block-it kit (Life Technologies). The miRNA sequences were: […] TGTACAT (miRNA GM3S-1) (SEQ ID NO: 3), […] (miRNA GM3S-2) (SEQ ID NO: 4), […] CTGTAGA (miRNA Neu1-1) (SEQ ID NO: 5) and […] ATCGTAG (miRNA Neu1-2) (SEQ ID NO: 6). Neurons were transfected with vectors expressing the miRNA and GFP using the Neon transfection system (Life Technologies). The efficiency of the miRNA sequences was validated by transfecting NIH-3T3 cells and performing quantitative RT-PCR using a LightCycler 480 apparatus (Roche) following the manufacturer's instructions. […] Quantification of gangliosides levels was performed either with an automated ArrayScan XTI apparatus (Thermo-Fisher) using the General Intensity Measurement protocol, or with ImageJ on image acquired on a Nikon Eclipse Ti-U microscope. […] Colocalization of ganglioside staining with lysosomes was quantified using ImageJ. A mask was made from the Lamp1 staining channel and the corresponding ganglioside fluorescence was quantified as the percentage of total ganglioside fluorescence in every cell. […] To quantify neuronal death, 30 hours after glutamate treatment all neurons were labeled with 100 nM Cell tracker Deep Red (Life Technologies) and dead cells were labeled by propidium iodide (5 μM). […] The number of Tuj-1-positive cells per well was quantified with an automated ArrayScan XTI apparatus (Thermo-Fisher) using the compartmental analysis protocol. Neuronal death was quantified by comparing glutamate-treated and non-treated neurons.

[6] = test system: p62; test: Western blot analysis of p62 levels in cortical neurons; assay type: cell-based, mouse
[7] = test system: primary cultures of Spg11+/+ and Spg11−/− cortical neurons; test: Neuronal death triggered by glutamate in primary cultures of cortical neurons; assay type: cell-based, mouse; conditions: glutamate 200 μM, 30 hours
Description: (§2) Mouse primary cultures of cortical neurons were treated with Miglustat (Tocris) from the second day in culture. Medium was changed every three days. Immunostaining were performed after six days of culture in vitro, as previously described (Murmu et al., 2011). To downregulate GM3 synthase expression, vectors expressing miRNA were produced using the Block-it kit (Life Technologies). The miRNA sequences were: […] TGTACAT (miRNA GM3S-1) (SEQ ID NO: 3), […] (miRNA GM3S-2) (SEQ ID NO: 4), […] CTGTAGA (miRNA Neu1-1) (SEQ ID NO: 5) and […] ATCGTAG (miRNA Neu1-2) (SEQ ID NO: 6). Neurons were transfected with vectors expressing the miRNA and GFP using the Neon transfection system (Life Technologies). The efficiency of the miRNA sequences was validated by transfecting NIH-3T3 cells and performing quantitative RT-PCR using a LightCycler 480 apparatus (Roche) following the manufacturer's instructions. […] Quantification of gangliosides levels was performed either with an automated ArrayScan XTI apparatus (Thermo-Fisher) using the General Intensity Measurement protocol, or with ImageJ on image acquired on a Nikon Eclipse Ti-U microscope. […] Colocalization of ganglioside staining with lysosomes was quantified using ImageJ. A mask was made from the Lamp1 staining channel and the corresponding ganglioside fluorescence was quantified as the percentage of total ganglioside fluorescence in every cell. […]

[8] = test system: mouse model of Tay Sachs disease; conditions: cited from earlier work
[9] = test system: autolysosomes in Spg11+/+ and Spg11−/− neurons; test: Proportion of Lamp1-stained lysosomes also positive for p62 (autolysosomes) in cultured cortical neurons; assay type: cell-based, mouse; conditions: miglustat 100 μM, six days in vitro
Description: as §2

## zspg11spl: morpholino targeting a splice donor site for knock-down of zspg11, 5′-ACCAATCATAGCGTCTCGTACCCTC-3′ (all phosphorodiamidate morpholino (PMO))
[1]
  GM2 immunostaining in the telencephalon: increased the mean and variance of GM2 immunostaining intensity
[1]; listed as zspg11 morpholinos
  GM2 immunostaining in the telencephalon: stronger GM2 staining
[2]
  swimming / touch-induced escape: impaired the swimming
[2]; listed as zspg11 morpholinos
  swimming / touch-induced escape: significantly shorter touch-induced escapes
[3]
  motor phenotype of morphants: large proportion of paralyzed or slowly swimming phenotypes
[3]; listed as zspg11 morpholinos
  motor phenotype of morphants: either a loss of motility or a paralysis

## N[C@@H](CCC(=O)O)C(=O)O [Glutamate, glutamate]
[4]
  ganglioside levels: increase ganglioside levels
[5]; Spg11−/− neurons, p=0.007, n>10
  increase in overall GM2 levels: 15.7±3.9%
[5]; control neurons, p=0.02, n>9
  increase in overall GM2 levels: 20.0±4.6%
[6]; Spg11−/− neurons treated with glutamate (200 μM) for 24 hours
  p62 levels: significantly increased
[6]; control neurons treated with glutamate (200 μM) for 24 hours
  p62 levels: no difference

## CCCCN1C[C@H](O)[C@@H](O)[C@H](O)[C@H]1CO [Miglustat, N-butyldeoxynojirimycin]
[5]; control and Spg11−/− cortical neurons, six days in vitro
  levels of GM2 (fluorescence intensity of GM2 immunostaining): significantly decreased the levels of GM2 in a dose-dependent manner
[1]; morphants injected with zspg11spl morpholino, treated with miglustat, 48 hpf
  GM2 immunostaining intensity (mean and variance) in the telencephalon: corrected when morphants were treated with miglustat; also recorded: corrected in larvae treated by miglustat
[7]
  neuronal death induced by glutamate: prevented neuronal death induced by glutamate; also recorded: decreased the neuronal death induced by glutamate in a dose-dependent manner
[6]; Spg11−/− neurons, miglustat 100 μM, glutamate 200 μM for 24 hours, p62 normalized to tubulin
  glutamate-induced increase of p62 levels: inhibited
[8]
  brain levels of GM2: decrease brain levels of GM2
[2]; morphants injected with mismatch morpholino
  distance travelled following a touch-evoked escape response: no effect
[2]; morphants injected with zspg11spl morpholino, 48 hpf
  distance travelled following a touch-evoked escape response: corrected when treated by miglustat; also recorded: significantly corrected
[3]; larvae injected with zspg11spl morpholino, miglustat 100 or 300 uM in medium
  proportion of paralyzed larvae: decreased the proportion of paralyzed morphants; also recorded: significantly reduced in a dose-dependent manner
[9]
  proportion of lysosomes positive for the p62 marker: strongly decreased
